Reference: US20150093333A1, “COMPOSITIONS, METHODS AND USES FOR PEPTIDES IN DIAGNOSIS, PROGRESSION AND TREATMENT OF CANCERS” (THE REGENTS OF THE UNIVERSITY OF COLORADO, body corporate, priority 2003, published 2015)

How the values were obtained:
29 nm liposomes = settings: with 29 nm liposomes; cited from earlier work
[1] = tested on: PS-exposing cell membranes; experiment: Fluorescence staining of PS-exposing membranes in dissected gonads of C. elegans; type: in vivo; settings: wild type (N2), tat-1(tm3117) and ced-7(n2094) animals
Description: Fluorescence staining assays were carried out in an acceptible C. elegans model with PS-exposing cell membranes. […] NBD-MARCKS-ED was used to stain the dissected gonads of wild type (N2) animals, tat-1(tm3117) mutant animals, and engulfment-deficient ced-7 (n2094) mutant animals, respectively. 36 hour old hermaphrodite adult animals were collected and gently dissected by cutting their heads in a depression slide with a gonad dissection buffer (previously presented) to expose the gonads. The exposed gonads were then washed once in the dissection buffer and transferred to a dissection buffer containing 4 μM of Hoechst 33342 and 20 μM of NBD labeled MARCKS-ED peptide, 20 μM NBD-MARCKSmut1 peptide, or 10 nM Alexa Fluor 488-conjugated Annexin-V for 45 minutes. Gonads were washed one more time in the dissection buffer, placed on a 5% agarose pad, and visualized using a Nomarski microscope equipped with an epifluorescence detector.
FIGS. 6A-6C illustrate exemplary staining results using MARCKS derived peptides and Annexin V. PS is typically kept in the inner leaflet of plasma membranes in living cells and is exposed on the cell surface only under certain cellular events, i.e., when cells undergo apoptosis or lose the ability to maintain the PS asymmetry with a tat-1 gene mutation. FIG. 6A represents the staining results with labeled MARCKS-ED in wild type and mutants C. elegans. […] FIG. 6B represents the staining results with labeled MARCKSmut1 in wild type and mutants C. elegans. […] In FIGS. 6A-6B, nuclei were stained with Hoechst 33342. Annexin-V, a known PS-sensor, was also used to stain the gonads of tat-1 and ced-7 mutant C. elegans. […] Hoechst33342 (4 μM), FITC-AnnexinV (10 nM) and Nomarski images are shown. […] Scale bar=10 μm.

isolated microvesicles = experiment: Fluorescence enhancement with isolated rat microvesicles; type: binding
Description: In another exemplary method, having established the simultaneous curvature- and PS-sensing by MARCKS-ED in synthetic liposomes, MARCKS-ED was tested on detection of highly curved, PS-enriched particles in a complex biological system. Microvesicles (ø=0.03-1 μm) are highly curved lipid vesicles that shed into body fluids (e.g., blood, urine, ascitic fluid). These vesicles are released by cancerous cells in which lipid asymmetry is de-regulated, contributing to externalization and enrichment of PS on their outer leaflet. The microvesicle detecting ability of MARCKS-ED was investigated using plasma samples from a stressed rat model. […]
Microvesicles in these samples were characterized by TEM imaging, and ELISA of detection of the signature CD63 protein and the membrane transport protein Rab5b exposed on the surface. Particles expressing both proteins were captured by antibodies and quantified in a colorimetric endpoint assay.
These isolated microvesicles were measured by nanoparticle tracking analysis (NTA) to confirm their average size (ø=56 nm). Tracking analyses were performed using the NanoSight LM10-HS instrument (Amesbury, UK) equipped with a 532 nm laser and observed at scatter and fluorescence modes (filter=550 nm). […]
Monitored at λex=295 nm, Annexin-V (0.32 μM) was treated with CaCl2 (3 mM) in TES buffer and with 500 μM lipid vesicles of varying PS content. […]

microvesicles in plasma = experiment: Nanoparticle tracking analysis of microvesicles in plasma from stressed rats treated with MARCKS peptides; type: binding, rat; settings: Alexa Fluor 546 labeled peptides 55 nM
Description: These isolated microvesicles were measured by nanoparticle tracking analysis (NTA) to confirm their average size (ø=56 nm). Tracking analyses were performed using the NanoSight LM10-HS instrument (Amesbury, UK) equipped with a 532 nm laser and observed at scatter and fluorescence modes (filter=550 nm). The instrument was calibrated using commercially available 50 nm polystyrene beads. […] Alexa Fluor 546™-labeled mouse anti-rat CD63 and unconjugated Alexa Fluor 546™ were used as positive and negative controls, respectively. The profiles of MARCKS-ED-Alexa Fluor 546™ and Alexa Fluor 546™ in the absence of microvesicles were also investigated to confirm that these show negligible scatter and fluorescence background signals under identical NTA conditions.
FIG. 5A represents fluorescence enhancement assay with MARCKS-ED incubated with the isolated microvesicles. Peptide MARCKS-ED ([…]) not treated with microvesicles was used as a negative control. Annexin-V (a positive control) and MARCKS-ED were incubated with the isolated rat microvesicles. Fluorescence was normalized to the negative control. […] The diameter size and particle count of the isolated microvesicles detected by MARCKS-ED was further quantified. Nanoparticle tracking analysis (NTA) uses a laser for scatter and fluorescence modes to track small particles by Brownian motion, providing a robust method for detecting nano-sized microvesicles. Under the fluorescence mode with the emission filter set for the Alexa Fluor 546™, the particles that bound to MARCKS-ED, MARCKSmut1, and MARCKSmut2peptides were observed.
FIG. 5B illustrates the results of NTA of microvesicles treated with MARCKS derived peptides. […] The untreated plasma samples were detected using the scatter mode and treated samples were monitored by tracking the fluorescence of Alexa Fluor 546™ conjugated to the MARCKS-ED MARCKSmut1 and MARCKSmut2 peptides. […] Furthermore, blank samples were performed to rule out possible artifacts of background fluorescence from the peptides, the vesicles and the unconjugated dye.

[2] = tested on: lipid vesicles 60% POPC:15% cholesterol:15% POPE:10% POPS; experiment: Fluorescence anisotropy titration of NBD-labeled MARCKS peptides with lipid vesicles; type: binding; settings: FIG. 4D
Description: In another example, because fluorescence enhancement assays could not distinguish the contributions between different degrees of membrane penetration and binding affinity, fluorescence anisotropy assay was performed to specifically measure the binding affinity of the MARCKS derived peptides. The NBD-labeled peptides (1 μM) were titrated by synthetic liposomes of various sizes (30, 100, and 400 nm). Fluorescence anisotropy was recorded using a Fluorolog-3 fluorometer. The mixture was allowed to equilibrate for 2 minutes prior to the next titration. The excitation wavelength was set to λex=480 nm whereas the emission filter was set to λem=545 nm. The voltage was set to 250 V throughout the experiment. Blank PBS (pH=7.40) was titrated to NBD-labeled peptides as a negative control, where negligible anisotropy change was observed. The following equation was used to determine the dissociation constants as previously reported: Fb=Kp [L]/(1+KP[L]), where Fb expresses the fraction of peptide bound to lipids, Kp expresses the molar partition coefficient and [L] expresses the lipid concentration.
Lipid vesicles were titrated to NBD-labeled MARCKS-ED, MARCKSmut1, or MARCKSmut2 peptides. Since the peptide partitions between the hydrophobic lipid bilayer and the aqueous solvent, the molar partition coefficient is often reported. By definition, the apparent dissociation constant (Kd), described as the lipid concentration where 50% of the peptide is bound, is the reciprocal of the molar partition coefficient (Kp). Fluorescence anisotropy assay results indicated efficient curvature sensing by MARCKS-ED. FIG. 4C represents an exemplary fluorescence anisotropy titration of MARCKS-ED with various lipid vesicles. FIG. 4D provides data of fluoresence anisotropy titration of various MARCKS derived peptides. Lipid vesicles used in the experiments represented by FIGS. 4C-4D contained 60% POPC:15% cholesterol: 15% POPE: 10% POPS. […] As a comparison, C2AB illustrated a 1.9 fold increase in binding to smaller vesicles (105 nm) relative to the larger ones (252 nm). […] In addition, electrostatic interactions of MARCKSmut2 were also compromised. […] Such defects would permit the Phe residue to insert and stabilize the highly curved membranes.

synthetic lipid vesicles = experiment: Fluorescence enhancement assay of NBD-labeled MARCKS peptides with synthetic vesicles; type: binding; settings: FIG. 4B
From the text: In another exemplary method, lipid vesicles were employed to the curvature-sensing behavior of the MARCKS derived peptides with various sizes and lipid components. The membrane curvature is defined as the reciprocal of the diameter of a particular particle, e.g., smaller-sized vesicles present highly curved membrane bilayers. A series of lipid models were made to represent various lipid components that closely resemble the lipid composition of biological membranes. […] Dynamic light scattering (DLS) and negative-stain transmission electron microscopy (TEM) were performed to confirm the different vesicle sizes following the pressure-controlled extrusion process through different membrane diameter pores. Commercial polystyrene beads were used as the calibration standard for the vesicle size validation experiments. Furthermore, a time-course experiment was carried out to confirm the stability of the vesicles up to 16 hours. Three different membrane diameters were extruded for the following biophysical characterizations: 30 nm, 100 nm, 400 nm, reflecting different membrane curvatures.
Next, a fluorescence enhancement assay was conducted to further quantify the curvature- and PS-sensing behavior of MARCKS-ED. Appropriate controls were performed to confirm that the fluorophore alone had no effect on the observed fluorescence enhancement (data not shown). FIG. 4 represents histogram data of fluorescence enhancement assay with and fluorescence anisotropy titration of the NBD labeled MARCKS derived peptides. Upon binding to lipid vesicles, the fluorescence intensity of NBD-MARCKS-ED increased due to vesicle binding and changes in the hydrophobic environment surrounding the fluorophore, concurring with a slight blue shift of the maximum emission wavelength. The emission spectra of all NBD-labeled peptides were recorded using a Fluorolog-3 fluorometer with λex=480 nm. The peptides and protein were tested at a concentration of 500 nM in PBS (pH 7.40) treated with 500 μM synthetic vesicles of different vesicles sizes. […] The positive control C2AB (200 nM) from the rat Synaptotagmin-1 (Syn-1) protein (G374, residues 96-421) was treated with CaCl2 (2.5 mM) and observed with λex of 275 nm and emission range of 300-450 nm. The untreated peptide and Ca^2+-C2AB samples were corrected by the PBS (pH=7.40) blank solution for the peptides and PBS with Ca^2+ for the Ca^2+-C2AB sample. All samples were prepared and incubated overnight in 4° C.
FIG. 4A illustrates a histogram plot of fluorescence intensity of MARCKS-ED treated with lipid vesicles of various sizes. […] Last, the fluorescence intensity differences were less significant with vesicles containing no PS. […]

| Substance | fluorescence enhancement (29 nm liposomes) | staining of PS-exposed membranes [1] | binding to isolated microvesicles (fluorescence enhancement) (isolated microvesicles) | binding to microvesicles in whole plasma (NTA fluorescence mode) (microvesicles in plasma) | binding affinity [2] | fluorescence enhancement and curvature sensing (synthetic lipid vesicles) |
| --- | --- | --- | --- | --- | --- | --- |
| Golgi-microtubule-associated protein-2101-38: ALPS motif-bearing established curvature-sensing protein fragment (MSSWLGGLGSGLGQSLGQVGGSLASLTGQISNFTKDML; UniProt Q15643 1-38, looked up, fragment) | ~1.25 RFU | – | – | – | – | – |
| Annexin-V: established PS-sensing protein, positive control [reference compound] | – | germ cell corpses stained with both Hoechst and FITC-AnnexinV protein | Fluorescence enhancement was observed | – | – | – |
| nuclear pore complex protein-133245-267: ALPS motif-bearing established curvature-sensing protein fragment (LPQGQGMLSGIGRKVSSLFGILS; UniProt Q8WUM0 245-267, looked up, fragment) | ~1.25 RFU | – | – | – | – | – |
| AAAAAAFSFAASFALSGFSFAANAA [MARCKSmut2, MARCKS-ED with positively charged residues (Lys, Arg) mutated to Ala] | – | – | – | only negligible binding | compromised | significantly reduced fluorescence enhancement |
| KKKKKRASAKKSAKLSGASAKKNKK [MARCKSmut1, MARCKS-ED with the five Phe residues mutated to Ala] | – | did not appear to detect PS-exposed membranes in either tat-1 or ced-7 mutant animals | – | some preferential binding to smaller vesicles but with much weaker fluorescence signal | greatly reduced binding affinity | significantly reduced fluorescence enhancement |
